According to US7960567B2, “Compounds and methods useful for treating asthma and allergic inflammation” (Amgen Inc., priority 2007, dated 2011):

How the values were obtained:
human CRTH2 = biological target: T1, human CRTH2 (Homo sapiens, UniProt Q9Y5Y4); assay: Human CRTH2 binding assay (3H-PGD2 binding, 293(124) cells); details: 1 nM 3H-PGD2 and 30 nM unlabeled PGD2, read-out: IC50 observed in CRTH2 binding assay
T1 construct: Full-length human CRTH2 cDNA was generated by polymerase chain reaction (PCR); expressed in transfected cells
T1 sequence (Q9Y5Y4 1-395): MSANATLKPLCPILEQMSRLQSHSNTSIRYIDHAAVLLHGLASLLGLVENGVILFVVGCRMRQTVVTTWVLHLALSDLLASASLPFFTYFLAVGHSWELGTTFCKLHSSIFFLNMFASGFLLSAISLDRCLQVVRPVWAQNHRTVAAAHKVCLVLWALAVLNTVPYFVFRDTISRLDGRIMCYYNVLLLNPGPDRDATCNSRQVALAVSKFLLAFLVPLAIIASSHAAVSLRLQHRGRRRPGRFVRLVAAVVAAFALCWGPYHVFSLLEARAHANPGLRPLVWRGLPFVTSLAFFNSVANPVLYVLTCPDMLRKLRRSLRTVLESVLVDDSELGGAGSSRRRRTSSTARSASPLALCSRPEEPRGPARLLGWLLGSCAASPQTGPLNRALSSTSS
Protocol: Full-length human CRTH2 cDNA was generated by polymerase chain reaction (PCR) using human genomic DNA as template and subsequently cloned into pcDNA3.1(+) (Invitrogen Corp., Carlsbad, Calif.), generating a CRTH2 expression plasmid pHLT124. The plasmid was transfected into 293 cells, […], using LIPOFECTAMINE™ reagents (Invitrogen Corp., Carlsbad, Calif.). G418 ([…]) was added to the culture 48 h after transfection and cells were maintained under selection for 3 weeks to ensure that all surviving cells stably expressed CRTH2. These cells are labeled as 293(124) hereafter.
^3H-PGD2 binding assay was performed using 293(124) cells. In brief, cells were washed and suspended in RPMI containing 0.5% BSA and 20 mM HEPES. Each assay contained 25,000 cells, appropriate amount of test compound when necessary and a mixture of 1 nM ^3H-PGD2 (Amersham Biosciences, Piscataway, N.J.) and 30 nM of unlabeled PGD2 (Cayman Chemical Co., Ann Arbor, Mich.) in […] final volume. The cell mixture was incubated at room temperature for 2.5 h with shaking and the cells were separated from free ^3H-PGD2 and transferred onto a filter plate using a cell harvester. Radioactivity bound to the cells was measured on a liquid scintillation counter. Nonspecific binding was determined in the presence of […] of unlabeled PGD2.

human DP = biological target: T2, human DP (Homo sapiens, UniProt Q13258); assay: Human DP binding assay (3H-PGD2 binding, 293(128) cells); details: 2 nM 3H-PGD2 and 0 nM unlabeled PGD2, read-out: IC50 observed in DP binding assay
T2 construct: Full-length human DP cDNA was generated by PCR using human genomic DNA as a template; expressed in transfected cells
T2 sequence (Q13258 1-359): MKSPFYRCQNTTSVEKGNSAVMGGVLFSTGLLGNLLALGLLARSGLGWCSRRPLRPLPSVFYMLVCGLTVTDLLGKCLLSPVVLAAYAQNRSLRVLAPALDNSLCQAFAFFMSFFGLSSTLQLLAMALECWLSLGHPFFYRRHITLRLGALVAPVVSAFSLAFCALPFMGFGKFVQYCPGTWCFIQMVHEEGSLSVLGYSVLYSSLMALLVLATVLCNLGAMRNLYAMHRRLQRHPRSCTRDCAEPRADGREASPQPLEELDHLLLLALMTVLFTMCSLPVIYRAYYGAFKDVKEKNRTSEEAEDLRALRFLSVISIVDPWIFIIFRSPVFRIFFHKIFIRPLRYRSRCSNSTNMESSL
Protocol: Full-length human DP cDNA was generated by PCR using human genomic DNA as a template and subsequently cloned into pcDNA3.1(+) to generate a DP expression plasmid. The plasmid was transfected into 293 cells to generate a line of cells that have stable overexpression of human DP, termed 293(128) cells, essentially as described above for CRTH2. ^3H-PGD2 binding assays were performed using 293(128) cells as described above for CRTH2 except that each assay contained 350,000 cells, and 2 nM ^3H-PGD2 and 0 nM unlabeled PGD2.

IC50 (human CRTH2)	IC50 (human DP)	SMILES
10 to 100 nM	< 10 nM	COc1cc(CC(=O)O)ccc1Oc1ccc2[nH]c(C)cc2c1NS(=O)(=O)c1ccc(Cl)cc1Cl [Example 1, 2-(4-(4-(2,4-Dichlorophenylsulfonamido)-2-methyl-1H-indol-5-yloxy)-3-methoxyphenyl)acetic acid]
100 to 1000 nM	1000 to 15000 nM	O=C(O)Cc1ccc(Oc2cc3c(cc2NS(=O)(=O)c2ccc(Cl)cc2)C(=O)NC3=O)c(Cl)c1 [Example 30, 2-(3-Chloro-4-(6-(4-chlorophenylsulfonamido)-1,3-dioxoisoindolin-5-yloxy)phenyl)acetic acid]
